The source of these data is patent publication US20240002391A1, “4-ALKOXYPYRROLO[2,1-F][1,2,4]TRIAZINES AND PREPARATION AND USES THEREOF” (BioSplice Therapeutics, Inc., priority 2022, published 2024).

The target of this assay is recombinant DYRK1A kinase (Homo sapiens (Human), UniProt Q13627). In words: DYRK1A kinase assay (Ser/Thr 18 peptide Z-lyte FRET). The conditions noted are these: DYRK1A kinase activity, Z-lyte Ser/Thr 18 peptide, 15 μM ATP; method text calls the value IC50; read-out: EC50 (the source's name). In kind it is biochemical. A digest of the protocol:
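IC50 from non-linear fits of percent phosphorylation, derived from coumarin/fluorescein emission ratio after 1 h protease development. Kinase reaction: 1 h room temperature, 15 μM ATP, 4 μM Ser/Thr peptide 18, 0.25 μg/mL recombinant DYRK1A, duplicate 11-point 1:3 dilutions from 10 μM.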

As for `COCC(=O)N[C@]1(C)C[C@@H](Nc2nc(OC)c3c(-c4ccc5nnn(C)c5c4)ccn3n2)C1` [Compound 208, 2-Methoxy-N-(trans-3-((4-methoxy-5-(1-methyl-1H-benzo[d][1,2,3]triazol-6-yl)pyrrolo[2,1-f][1,2,4]triazin-2-yl)amino)-1-methylcyclobutyl)acetamide], the IC50 is 0.5 nM. For `COc1nc(NC2CC3(COC3)C2)nn2ccc(-c3ccc4nccnc4c3)c12` [Compound 385, 4-Methoxy-5-(quinoxalin-6-yl)-N-(2-oxaspiro[3.3]heptan-6-yl)pyrrolo[2,1-f][11,2,4]triazin-2-amine], the IC50 worked out at 1.7 nM.

In the case of `COc1nc(N[C@H]2CC[C@](C)(O)CC2)nn2cc(F)c(-c3ccc4ncccc4c3)c12` [Compound 1056, trans-4-((6-Fluoro-4-methoxy-5-(quinolin-6-yl)pyrrolo[2,1-f][1,2,4]triazin-2-yl)amino)-1-methylcyclohexan-1-ol], the IC50 is 1.1 nM. The value for `COc1nc(N[C@H]2C[C@](C)(C(=O)N(C)C)C2)nn2ccc(-c3ccc4nccnc4c3)c12` [Compound 339, trans-3-((4-Methoxy-5-(quinoxalin-6-yl)pyrrolo[2,1-f][1,2,4]triazin-2-yl)amino)-N,N,1-trimethylcyclobutane-1-carboxamide] was 4.8 nM; that for `COc1nc(N[C@H]2C[C@@](C)(N(C)C)C2)nn2ccc(-c3ccc4ncccc4c3)c12` [Compound 1043, cis-N3-(4-Methoxy-5-(quinolin-6-yl)pyrrolo[2,1-f][1,2,4]triazin-2-yl)-N1,N1,1-trimethylcyclobutane-1,3-diamine] was 2.8 nM; that for `COc1nc(N[C@H]2CCN(C3COC3)C[C@H]2F)nn2ccc(-c3ccc4nc(C)n(CC(F)F)c4c3)c12` [Compound 137, 5-(1-(2,2-Difluoroethyl)-2-methyl-1H-benzo[d]imidazol-6-yl)-N-((3R,4S)-3-fluoro-1-(oxetan-3-yl)piperidin-4-yl)-4-methoxypyrrolo[2,1-f][1,2,4]triazin-2-amine] was 1.9 nM. The value for `COc1nc(N[C@@H]2CCN(C)C[C@@H]2F)nn2ccc(-c3cnc4nccn4c3)c12` [Compound 267, N-((3S,4R)-3-Fluoro-1-methylpiperidin-4-yl)-5-(imidazo[1,2-a]pyrimidin-6-yl)-4-methoxypyrrolo[2,1-f][1,2,4]triazin-2-amine] was 4.8 nM; that for `COc1nc(N[C@H]2C[C@](C)(NC(=O)C3(C#N)CC3)C2)nn2ccc(-c3ccc4ncnn4c3)c12` [Compound 563, N-((1r,3r)-3-((5-([1,2,4]Triazolo[1,5-a]pyridin-6-yl)-4-methoxypyrrolo[2,1-f][1,2,4]triazin-2-yl)amino)-1-methylcyclobutyl)-1-cyanocyclopropane-1-carboxamide] was 1 nM; that for `COc1nc(N[C@H]2C[C@@](C)(NC(=O)OC(C)(C)C)C2)nn2ccc(-c3ccc4nccnc4c3)c12` [Compound 337, tert-Butyl (cis-3-((4-methoxy-5-(quinoxalin-6-yl)pyrrolo[2,1-f][1,2,4]triazin-2-yl)amino)-1-methylcyclobutyl)carbamate] was 11.5 nM. With `COc1nc(N[C@H]2CC[C@@H](OC)CC2)nn2ccc(-c3ccc4nccn4c3)c12` [Compound 45, 5-(Imidazo[1,2-a]pyridin-6-yl)-4-methoxy-N-(cis-4-methoxycyclohexyl)pyrrolo[2,1-f][1,2,4]triazin-2-amine], the IC50 came to 9.3 nM.

`COc1nc(N[C@H]2CC[C@@H](C(F)(F)F)CC2)nn2ccc(-c3cnc4nccn4c3)c12` [Compound 239, 5-(Imidazo[1,2-a]pyrimidin-6-yl)-4-methoxy-N-(cis-4-(trifluoromethyl)cyclohexyl)pyrrolo[2,1-f][1,2,4]triazin-2-amine]: the IC50 was determined as 2.9 nM. The value for `COc1nc(N[C@H]2CC[C@@H](O)CC2)nn2ccc(-c3ccc4nnn(CC(F)F)c4c3)c12` [Compound 718, cis-4-((5-(1-(2,2-Difluoroethyl)-1H-benzo[d][1,2,3]triazol-6-yl)-4-methoxypyrrolo[2,1-f][1,2,4]triazin-2-yl)amino)cyclohexan-1-ol] was 0.5 nM; that for `COc1nc(N[C@@H]2CN(C3COC3)C[C@@H]2F)nn2ccc(-c3ccc4nc(C)n(CC(F)F)c4c3)c12` [Compound 506, 5-(1-(2,2-Difluoroethyl)-2-methyl-1H-benzo[d]imidazol-6-yl)-N-((3R,4S)-4-fluoro-1-(oxetan-3-yl)pyrrolidin-3-yl)-4-methoxypyrrolo[2,1-f][1,2,4]triazin-2-amine] was 2.3 nM; that for `COc1nc(N[C@@H]2CC[C@H]2OC)nn2ccc(-c3cnc4nccn4c3)c12` [Compound 930, 5-(Imidazo[1,2-a]pyrimidin-6-yl)-4-methoxy-N-((1R,2R)-2-methoxycyclobutyl)pyrrolo[2,1-f][1,2,4]triazin-2-amine] was 6.9 nM. Regarding `COc1nc(N[C@H]2CCN(C3COC3)C[C@H]2F)nn2ccc(-c3ccc4nnn(CC(F)F)c4c3)c12` [Compound 762, 5-(1-(2,2-Difluoroethyl)-1H-benzo[d][1,2,3]triazol-6-yl)-N-((3R,4S)-3-fluoro-1-(oxetan-3-yl)piperidin-4-yl)-4-methoxypyrrolo[2,1-f][1,2,4]triazin-2-amine], the IC50 was 1.3 nM. For `COc1nc(N[C@H]2CC[C@@H](OC)CC2)nn2ccc(-c3cnc4nccn4c3)c12` [Compound 243, 5-(imidazo[1,2-a]pyrimidin-6-yl)-4-methoxy-N-(cis-4-methoxycyclohexyl)pyrrolo[2,1-f][1,2,4]triazin-2-amine], the IC50 turned out to be 1.2 nM. As to `COc1nc(NC2CC3(CCN(C(C)=O)CC3)C2)nn2ccc(-c3ccc4nnn(C)c4c3)c12` [Compound 227, 1-(2-((4-Methoxy-5-(1-methyl-1H-benzo[d][1,2,3]triazol-6-yl)pyrrolo[2,1-f][1,2,4]triazin-2-yl)amino)-7-azaspiro[3.5]nonan-7-yl)ethan-1-one], the IC50 is 3.6 nM. As for `COc1nc(N[C@@H]2CCN(C)C[C@@H]2F)nn2ccc(-c3ccn4nccc4c3)c12` [Compound 31, N-((3S,4R)-3-fluoro-1-methylpiperidin-4-yl)-4-methoxy-5-(pyrazolo[1,5-a]pyridin-5-yl)pyrrolo[2,1-f][1,2,4]triazin-2-amine], the IC50 amounted to 7.7 nM. For `COc1nc(N[C@@H]2CCN(C3COC3)CC2(F)F)nn2ccc(-c3ccc4ncccc4c3)c12` [Compound 321, (R)—N-(3,3-Difluoro-1-(oxetan-3-yl)piperidin-4-yl)-4-methoxy-5-(quinolin-6-yl)pyrrolo[2,1-f][1,2,4]triazin-2-amine], the IC50 was 2.1 nM. The value for `COc1nc(N[C@H]2CCN(C3COC3)CC2(F)F)nn2ccc(-c3ccc4ncccc4c3)c12` [Compound 322, (S)—N-(3,3-Difluoro-1-(oxetan-3-yl)piperidin-4-yl)-4-methoxy-5-(quinolin-6-yl)pyrrolo[2,1-f][1,2,4]triazin-2-amine] was 6.6 nM; that for `COc1nc(N[C@@H](C)C2COC2)nn2ccc(-c3cnc4nccn4c3)c12` [Compound 928, (S)-5-(Imidazo[1,2-a]pyrimidin-6-yl)-4-methoxy-N-(1-(oxetan-3-yl)ethyl)pyrrolo[2,1-f][1,2,4]triazin-2-amine] was 2 nM. The value for `CCN1C[C@H](F)[C@H](Nc2nc(OC)c3c(-c4ccc5nnn(CC(F)F)c5c4)ccn3n2)C1` [Compound 732, 5-(1-(2,2-Difluoroethyl)-1H-benzo[d][1,2,3]triazol-6-yl)-N-((3R,4S)-1-ethyl-4-fluoropyrrolidin-3-yl)-4-methoxypyrrolo[2,1-f][1,2,4]triazin-2-amine] was 1 nM.

Take `COc1nc(N[C@H]2CCN(C)C[C@H]2F)nn2cc(F)c(-c3ccc4nnn(C)c4c3)c12` [Compound 630, 6-Fluoro-N-((3R,4S)-3-fluoro-1-methylpiperidin-4-yl)-4-methoxy-5-(1-methyl-1H-benzo[d][1,2,3]triazol-6-yl)pyrrolo[2,1-f][1,2,4]triazin-2-amine]: the IC50 was found to be 4.9 nM. The value for `COc1nc(N[C@@H]2CCN(C3COC3)C[C@@H]2F)nn2ccc(-c3ccc4nnn(CC(F)F)c4c3)c12` [Compound 761, 5-(1-(2,2-Difluoroethyl)-1H-benzo[d][1,2,3]triazol-6-yl)-N-((3S,4R)-3-fluoro-1-(oxetan-3-yl)piperidin-4-yl)-4-methoxypyrrolo[2,1-f][1,2,4]triazin-2-amine] was 1.7 nM; that for `COc1nc(N[C@@H]2CCC(=O)N(C)C2)nn2ccc(-c3ccc4nccnc4c3)c12` [Compound 1097, (R)-5-((4-Methoxy-5-(quinoxalin-6-yl)pyrrolo[2,1-f][1,2,4]triazin-2-yl)amino)-1-methylpiperidin-2-one] was 2.7 nM; that for `CCOc1nc(N[C@H]2C[C@@H](OCCO)C2)nn2ccc(-c3ccn4nccc4c3)c12` [Compound 91, 2-(cis-3-((4-Ethoxy-5-(pyrazolo[1,5-a]pyridin-5-yl)pyrrolo[2,1-f][1,2,4]triazin-2-yl)amino)cyclobutoxy)ethan-1-ol] was 1.6 nM. The value for `COc1nc(N[C@H]2C[C@@](C)(O)C2)nn2ccc(-c3cc4ccncc4[nH]3)c12` [Compound 283, cis-3-((4-Methoxy-5-(1H-pyrrolo[2,3-c]pyridin-2-yl)pyrrolo[2,1-f][1,2,4]triazin-2-yl)amino)-1-methylcyclobutan-1-ol] was 110 nM; that for `COc1nc(NC2CCN(C3COC3)CC2)nn2ccc(-c3ccc4nccn4c3)c12` [Compound 62, 5-(Imidazo[1,2-a]pyridin-6-yl)-4-methoxy-N-(1-(oxetan-3-yl)piperidin-4-yl)pyrrolo[2,1-f][1,2,4]triazin-2-amine] was 8.5 nM. The value for `CNC(=O)c1cnc2ccc(-c3ccn4nc(NC5CCC6(CC5)COC6)nc(OC)c34)cn12` [Compound 107, 6-(2-((2-Oxaspiro[3.5]nonan-7-yl)amino)-4-methoxypyrrolo[2,1-f][1,2,4]triazin-5-yl)-N-methylimidazo[1,2-a]pyridine-3-carboxamide] was 0.9 nM.
